Assay results taken from a melting point compilation (Tetko et al.).

melting point [°C]	SMILES
132	O=[N+]([O-])c1ccc2cccnc2c1
91 to 92	Ic1ccc(-n2cccn2)cc1
180 to 182	O=c1c2ccccc2oc2ncccc12
-5	Nc1cccc(F)c1
98 to 101	O=C(O)c1cccc(N2CCCCC2)n1
20	Cc1ccc2c(c1)CCC(C)C2 (stereo not drawn)
83.5	COc1ccc(C(=O)CC(=O)c2ccc(C(C)(C)C)cc2)cc1
109	COC(=O)CCC(C)C1CCC2C3CCC4CCCCC4(C)C3CC(=O)C12C (stereo not drawn)
145	Cc1ccc(S(=O)(=O)N2C/C(=C\c3cccc(Cl)c3)N(S(=O)(=O)c3ccc(C)cc3)c3ccccc32)cc1
83	CC1(C)C(C(=O)c2ccccc2)=Nc2ccccc21
179	CC(C=CC=C(C)C=CC1=C(C)CCCC1(C)C)=CC=CC=C(C)C=CC=C(C)C=CC1=C(C)C(=O)CCC1(C)C
98 to 99	O=[N+]([O-])c1cccnc1Oc1ccc(F)cc1
94 to 98	Cn1ccc2c(S(=O)(=O)Cl)cccc21
87 to 91	CCOC(=O)c1cn2ccsc2n1
128	CC(c1ncncc1F)C(O)(Cn1cncn1)c1ccc(F)cc1F (stereo not drawn)
188	Cc1ccc(C(=O)N(NC(=O)c2ccccc2)C(C)(C)C)cc1
175	c1ccc(C(c2ccccc2)(c2ccccc2)N2CCOCC2)cc1
2 to 3	OCCc1ccccc1C(F)(F)F
205 to 206	O=C(O)c1scc2c1OCCO2
37	Cc1c(F)ccc(C(=O)Cl)c1F
276	O=C1NN(c2ccccc2)C(=O)C1=CNc1ccccc1
123 to 124	Brc1ccc2[nH]ncc2c1
320	CC(C)(C)c1nc2ccccc2[nH]1
150 to 155	CCOC(=O)c1cc2cc([N+](=O)[O-])ccc2o1
84 to 86	O=CC1=C(Cl)c2cc(Cl)ccc2SC1
76 to 78	CCCC1(C)CC(=O)NC1=O (stereo not drawn)
151 to 152	COc1ccc(C=C2N=C(c3ccccc3)OC2=O)cc1

melting point [°C]	SMILES
170	CC(C)(C#N)Nc1nc(Cl)nc(NC2CC2)n1
210	Cc1cc(C)c(C[S+]([O-])Cc2c(C)cc(C)cc2C)c(C)c1
-54.9	CC(C)c1ccncc1
134 to 136	O=C1CCCN1c1ccc(C(F)(F)F)cc1
129 to 131	NC(=S)NCCCN1CCOCC1
156	c1ccc2c(c1)Nc1ccccc1O2
78	CC(=O)c1cnc2ccccc2n1
94 to 99	CCCCCCc1ccc(C(=O)O)cc1
128	Oc1ccc2cc(Br)ccc2c1
153 to 154	N#CC(=CNc1ccccn1)C(=O)c1ccccc1
160	Cc1ccc(N2C(=O)C3ON=C(C(=O)c4cccs4)C3C2=O)cc1 (stereo not drawn)
103 to 105	O=C(OCc1ccccc1Cl)ON1C(=O)CCC1=O
246	C=C1C(=O)C23C4CC5C(C)(C)CCC(OC(C)=O)C5(C)C2C(OC(C)=O)CC1(O)C3OC(C)(C)O4 (stereo not drawn)
104 to 108	O=Cc1cccc(NS(=O)(=O)c2ccccc2)c1
162	CCCCc1c(C)nc(N)nc1Cl
38 to 41	O=Cc1ccccc1OCc1cccc(Cl)c1
219	CCOC(=O)C(C#N)=NNc1ccc(C(=O)O)cc1
168 to 169	O=c1cc(-c2ccc(F)cc2)oc(-c2ccc(F)cc2)c1
71 to 73	Cc1ccc(C#N)c(S(=O)(=O)Cl)c1
68	Cc1ccc2nc(C)cc(C)c2c1
332 to 334	N#CC(C#N)=C(C(=O)Cc1ccccc1)c1ccc([N+](=O)[O-])cc1
79	CCOC(=O)C(Nc1cccc(NC(C(=O)OCC)C(=O)OCC)c1)C(=O)OCC
145	CC1(C)CC(=O)NC(=O)C1
203 to 204	Cc1ccccc1N1C(=O)C2ON=C(C(=O)c3ccco3)C2C1=O (stereo not drawn)
287	O=C(O)c1c(C(=O)O)c(C(=O)O)c(C(=O)O)c(C(=O)O)c1C(=O)O
-76	FC(F)(Cl)CBr
102	O=[N+]([O-])c1c(Cl)ncnc1Cl

melting point [°C]	SMILES
35 to 43	C=Cc1ccc2c(c1)OCCOCCOCCOCCO2
186	O=C1NN=C(C(F)(F)F)C1=NNc1ccccc1
237 to 239	CCOC(=O)C1=NN(c2ccc([N+](=O)[O-])cc2)C2(C)CC3(c4ccccc4)N(c4ccc([N+](=O)[O-])cc4)N=C(C(=O)OCC)N3c3ccccc3N12 (stereo not drawn)
167	CC(C)C1=C(O)C(=O)C2=C(C=CC3C(C)(C)CCCC23C)C1=O (stereo not drawn)
147 to 150	O=C(O)c1cccc2c1CCCC2
33 to 38	COCN1CCOCCOCCN(COC)CCOCCOCC1
89 to 90	OCc1cccc2cccc(Br)c12
-4	CC(=O)O[Si](OC(C)=O)(OC(C)(C)C)OC(C)(C)C
220 to 247	O=C1OC(=O)C23CC4=C(CC=CC4)CC12CC1=C(CC=CC1)C3 (stereo not drawn)
84 to 86	O=C(O)COc1ccc(OC(F)(F)F)cc1
178	CCOC(=O)C1=C(COCCN)NC(C)=C(C(=O)OC)C1c1ccccc1Cl (stereo not drawn)
170 to 180	Nc1cccc(C(=O)O)c1C(=O)O
-95	FC(F)(F)C(F)(F)C(F)(F)I
175 to 177	O=C(C=Cc1ccc(Cl)c(Cl)c1)C=Cc1ccc(Cl)c(Cl)c1
129 to 130	O=Cc1cc2cc(Br)ccc2o1
126 to 128	Clc1ncnc2c1cnn2-c1ccccc1
230	O=C(O)c1cc(Br)cc2c1OCC2
156	CC(C)=CCC1C(=O)N(c2ccccc2)N(c2ccccc2)C1=O
43	CC(=O)c1cccc(S(=O)(=O)Cl)c1
220	COc1cc2c3c(c4ccc(OC)c(OC)c4c2cc1OC)CN1CCCC1C3 (stereo not drawn)
289	O=C(O)C=Cc1ccc([N+](=O)[O-])cc1
60	C=CC1CNCCC1CCC(=O)c1ccnc2ccc(OC)cc12 (stereo not drawn)
65	O=C(O)COC(=O)c1cc(Oc2ccc(C(F)F)cc2Cl)ccc1[N+](=O)[O-]
104	NS(=O)(=O)c1ccc(SCCCCO)c(F)c1
270	CCC1Nc2cc(Cl)c(S(N)(=O)=O)cc2S(=O)(=O)N1 (stereo not drawn)
127	CCC1(O)CCC2(C)C(CCC3C2CCC2(C)C3CCC23OCCO3)C1 (stereo not drawn)
182	COc1ccc(NS(=O)(=O)c2ccc(N)cc2)nn1

melting point [°C]	SMILES
136	NC(=S)c1ccccn1
156	COc1ccc(C(=O)Oc2ccc(/C=C/C(=O)c3ccccc3)cc2)cc1
132	Cc1ccc(O)c(-n2nc3ccccc3n2)c1
120 to 124	O=C(O)COCCNC(=O)C12CC3CC(CC(C3)C1)C2
240	O=C1c2ccccc2NC1(OC1(c2ccccn2)Nc2ccccc2C1=O)c1ccccn1 (stereo not drawn)
-68	CCCCOCCOCCO
86	CC1=C(C(=O)OCc2ccccc2)C(c2ccccc2)N(C)C(=O)N1C (stereo not drawn)
198	CC(C)(C)N(NC(=O)c1ccccc1)C(=O)c1c(Cl)cccc1Cl
56 to 58	BrCc1ccc(OC2CCOCC2)cc1
74 to 76	O=C1CCC2(CC1)OCCO2
183	COc1cc(/C=C/C(=O)CC(=O)/C=C/c2ccc(O)c(OC)c2)ccc1O
85	CCOc1ccc(OCC)c(N)c1
300	CCSc1nc(N)c(Br)c(O)n1
133	O=C(O)Cc1ccc(CO)cc1
-8	CCCCCCC(=O)CC
76	O=C(c1ccccc1)c1cccc2ccccc12
210	CC12C=CC(=O)C=C1C(F)CC1C2C(O)CC2(C)C1CCC2(O)C(=O)CO (stereo not drawn)
232 to 234	CC(/C=C/c1ccccc1)=C\C(C)=N\Nc1ccc([N+](=O)[O-])cc1[N+](=O)[O-]
-45	C=CC(=O)OCCCCCC
295	Oc1cc(Cl)cnc1O
42	CCOc1ccccc1OCCBr
102 to 106	c1ccc2c(c1)OCCOCCOCCOc1ccccc1OCCOCCOCCO2
110	O=C(O)CSCCSCC(=O)O
60 to 62	CC(C)(C)c1cc(N)[nH]n1

SMILES	melting point [°C]
COC1=CC=C2C3Cc4ccc(OC)c5c4C2(CCN3C)C1O5 (stereo not drawn)	193
CCC1CN2CCc3cc(OC)c(OC)cc3C2CC1CC1NCCc2cc(O)c(OC)cc21 (stereo not drawn)	116
CCC1C(C#N)=C(N)Oc2c1c(=O)oc1ccccc21 (stereo not drawn)	233 to 237
O=C(Cc1ccccc1)OCc1ccccc1[N+](=O)[O-]	54
CNC(=O)ON=C(C)C(C)SC (stereo not drawn)	37
CC12CCC3C(CCC4CC(CC(=O)O)=CCC43C)C1CCC2=O (stereo not drawn)	175 to 178
Fc1ccc(Oc2ccnc3cc(Cl)cc(Cl)c23)cc1	107
Oc1ccc2c(c1)C13CCCCC1C(C2)N(CCc1ccccc1)CC3 (stereo not drawn)	244
Cc1ccc(OP(=O)(Oc2ccc(C)cc2)Oc2ccc(C)cc2)cc1	77.5
O=CC(Br)(Br)Br	-57.5
CC(C)C12C=CC(C)(CC1)OO2 (stereo not drawn)	3.3
C#CC#C	-36.4
C#CC1(O)CCC2C3CCC4C(C)(C)CCCC4(C)C3CCC21C (stereo not drawn)	156 to 158
COc1ccc(C)cc1N	53
Oc1ccc2c(c1)C13CCCCC1C(C2)NCC3 (stereo not drawn)	271
ClCOCCl	-41.5
O=C(O)C(F)(F)C(F)(F)C(F)(F)C(F)(F)C(F)(F)C(F)(F)C(F)(F)C(F)(F)C(F)(F)F	87.4 to 88.2
BrC1Cc2ccccc2C1Br (stereo not drawn)	32
